Each structure is given as a SMILES string.

In assay [1] the target is T1, PilT^Gm (PilT4 from Geobacter metallireducens) (Geobacter metallireducens, UniProt Q39VU6).
T1 construct: gene pilT-4; hexamer; domains N2D residues 1-100, CTD 101-353
Put plainly: X-ray crystal structure (OCOCOC). The following applies: preincubated with Mg2+ and ATP, unbound nucleotide removed, pH 7.6; nucleotide-binding site.

For assay [2], the target named is T1, PilT^Gm (PilT4 from Geobacter metallireducens). Put plainly: X-ray crystal structure (anisotropic, about […] A). The conditions noted are these: 2 mM ANP, 2 mM MgCl2, pH 7.9 reservoir; four of six nucleotide-binding sites, ADP in the other two; CCOCCO conformation.

T1 sequence (Q39VU6 entry or part of it): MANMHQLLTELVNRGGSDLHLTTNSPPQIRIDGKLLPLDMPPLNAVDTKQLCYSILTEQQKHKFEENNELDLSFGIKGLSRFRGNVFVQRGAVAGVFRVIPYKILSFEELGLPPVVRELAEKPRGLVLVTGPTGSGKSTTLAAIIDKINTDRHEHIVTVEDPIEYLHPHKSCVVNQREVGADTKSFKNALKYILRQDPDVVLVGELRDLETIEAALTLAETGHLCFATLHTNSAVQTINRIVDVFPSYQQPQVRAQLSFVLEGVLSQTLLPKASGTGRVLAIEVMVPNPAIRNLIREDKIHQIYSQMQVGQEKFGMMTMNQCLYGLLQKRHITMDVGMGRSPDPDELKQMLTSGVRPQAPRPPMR

In the case of `Nc1ncnc2c1ncn2[C@@H]1O[C@H](COP(=O)(O)OP(=O)(O)O)[C@@H](O)[C@H]1O` [ADP], the “X-ray crystal structure (OCOCOC)” value in assay [1] was “An isomorphous structure with high ADP occupancy was obtained”.
`Nc1ncnc2c1ncn2[C@@H]1O[C@H](COP(=O)(O)OP(=O)(O)NP(=O)(O)O)[C@@H](O)[C@H]1O` [ANP]: in assay [2], the “X-ray crystal structure (anisotropic, about 4.0 A)” value is recorded as “density consistent with ANP could be modeled into four of the six nucleotide-binding sites”.
